Values quoted from earlier work, collected in paper PMC6631257.

Tested on: CYP2D6

CYP2D6 inhibitor strength | Compound
weak inhibitor | COc1ccc([C@@H]2Sc3ccccc3N(CCN(C)C)C(=O)[C@@H]2OC(C)=O)cc1 [diltiazem]
strong | CNCCC(Oc1ccc(C(F)(F)F)cc1)c1ccccc1 (stereo not drawn) [fluoxetine]

Compound | CYP2D6 inhibitor strength
Fc1ccc([C@@H]2CCNC[C@H]2COc2ccc3c(c2)OCO3)cc1 [paroxetine] | strong
